The test system of data set [1] is HBV (HepG2.117 cell line, inducibly HBV producing). The data set can be described thus: Anti-HBV activity, intracellular HBV DNA by real-time PCR in HepG2.117 cell line. Type of data set: cell-based, hepatitis B virus. The following applies: HepG2.117 cells, 3 days of treatment. The method in brief:
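Read-out is intracellular HBV DNA, measured by real-time PCR using HBV-specific primers and probe. Cells were stable, inducible HBV-producing HepG2.117 (Tet-off). Serially diluted compound was applied for 3 days after replication was induced.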

A short description of data set [2]: Cytotoxicity, ATPlite Luminescence Assay. Type of data set: cell-based, human. The following applies: human, HepG2 or HepG2.117 cells, 3-days incubation unless marked with *. The method in brief:
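Cells were exposed to compounds for 3 or 4 days, after which viability was determined by ATP-based luminescence (ATPlite).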
For orientation: Cellular ATP, detected with luciferase, serves as a proxy for viable cell number.

Data set [3] is described as follows: Human liver microsome stability. Type of data set: in vitro ADME. The conditions noted are these: 1 μM compound, NADPH 1 mM, 37° C., 0-60 min; for half-life at 1 μM: human, pooled human liver microsomes, pH 7.4, pooled human liver microsomes 0.5 mg/mL, read-out: HLM Metabolism t1/2; for HLM Metabolism t1/2: pooled human liver microsomes 0.5 mg/mL. In short, it runs like this: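 Single incubations with human liver microsomes started with 1 mM NADPH; samples taken at 0, 5, 10, 20, 40 and 60 min, quenched in acetonitrile (1:3). Cassette LC-MS analysis with internal standard; t½ derived from slope of ln peak-area ratio versus time (k = −gradient).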
A general note: Microsomes from liver hold many membrane-bound enzymes, among them those of drug oxidation.

Where [4] appears, read: Hepatitis B virus, HepG2.117, 72 h.

SMILES strings stand for the structures.

As a reminder, the EC50 is the concentration at which the effect is half-maximal. What is called CC50 is the concentration at which the toxic effect on the cells reaches its halfway point. Lower therefore signals harm at low concentration.

Molecule `CC(c1cc(F)c(=O)n(C2CC2)c1)N1C[C@@H](C)n2nc3c(c2C1=O)CN(C(=O)c1ccc(Cl)c(Cl)c1)[C@H](C)C3` (single isomer, unassigned) [Compound 46A, (3R,7R)-9-((R*)-1-(1-cyclopropyl-5-fluoro-6-oxo-1,6-dihydropyridin-3-yl)ethyl)-2-(3,4-dichlorobenzoyl)-3,7-dimethyl-1,2,3,4,8,9-hexahydropyrido[4′,3′:3,4]pyrazolo[1,5-a]pyrazin-10(7H)-one] gave an EC50 in data set [1] of 0.31 µM. The molecule also gave a CC50 at 3 days in data set [2] greater than 50 µM. Besides, in data set [3], the half-life at 1 μM is greater than 180 min.

In data set [1], `CC(c1ccn(C(C)C)c(=O)c1)N1C[C@@H](C)n2nc3c(c2C1=O)CN(C(=O)c1ccc(Cl)c(C(F)(F)F)c1)[C@H](C)C3` (single isomer, unassigned) [Compound 47A, (3R,7R)-2-(4-chloro-3-(trifluoromethyl)benzoyl)-9-((R*)-1-(1-isopropyl-2-oxo-1,2-dihydropyridin-4-yl)ethyl)-3,7-dimethyl-1,2,3,4,8,9-hexahydropyrido[4′,3′:3,4]pyrazolo[1,5-a]pyrazin-10(7H)-one] displayed an EC50 of 0.068 µM. In data set [2], the CC50 at 3 days was greater than 50 µM. Besides, in data set [3], the “HLM Metabolism t1/2” value was determined as 53.3 min.

Turning to `CC(C)Oc1cc(C(C)N2C[C@@H](C)n3nc4c(c3C2=O)CN(C(=O)c2ccc(Cl)c(C(F)(F)F)c2)[C@H](C)C4)ccn1` (single isomer, unassigned) [Compound 48A, (3R,7R)-2-(4-chloro-3-(trifluoromethyl)benzoyl)-9-((R*)-1-(2-isopropoxypyridin-4-yl)ethyl)-3,7-dimethyl-1,2,3,4,8,9-hexahydropyrido[4′,3′:3,4]pyrazolo [1,5-a]pyrazin-10(7H)-one], in data set [1] (setting [4]), a half-maximal response (EC50) required 0.052 µM. In data set [2], the CC50 at 3 days came to 22.1 µM. Moreover, the half-life at 1 μM in data set [3] came out at 133 min.

In data set [1], `CC(c1ccn(C(F)F)c(=O)c1)N1C[C@@H](C)n2nc3c(c2C1=O)CN(C(=O)c1ccc(Cl)c(C(F)(F)F)c1)[C@H](C)C3` (single isomer, unassigned) [Compound 49A, (3R,7R)-2-(4-chloro-3-(trifluoromethyl)benzoyl)-9-((R*)-1-(1-(difluoromethyl)-2-oxo-1,2-dihydropyridin-4-yl)ethyl)-3,7-dimethyl-1,2,3,4,8,9-hexahydropyrido [4′,3′:3,4]pyrazolo[1,5-a]pyrazin-10(7H)-one] showed a concentration for a half-maximal effect (EC50) of 0.041 µM. The same molecule registered a CC50 at 3 days in data set [2] greater than 50 µM. Besides, the “HLM Metabolism t1/2” value in data set [3] is on record as 79.2 min.

On to `CC(c1ccnc(OC(F)F)c1)N1C[C@@H](C)n2nc3c(c2C1=O)CN(C(=O)c1ccc(Cl)c(C(F)(F)F)c1)[C@H](C)C3` (single isomer, unassigned) [Compound 50A, (3R,7R)-2-(4-chloro-3-(trifluoromethyl)benzoyl)-9-((R*)-1-(2-(difluoromethoxy)pyridin-4-yl)ethyl)-3,7-dimethyl-1,2,3,4,8,9-hexahydropyrido[4′,3′:3,4]pyrazolo[1,5-a]pyrazin-10(7H)-one], for which, in data set [1], a half-maximal response (EC50) required 0.066 µM. The CC50 at 3 days in data set [2] is 12.5 µM. Moreover, the half-life at 1 μM in data set [3] was greater than 180 min.

`CC(c1ccn(CC(F)(F)F)c(=O)c1)N1C[C@@H](C)n2nc3c(c2C1=O)CN(C(=O)c1ccc(Cl)c(Cl)c1)[C@H](C)C3` (single isomer, unassigned) [Compound 51A, (3R,7R)-2-(3,4-dichlorobenzoyl)-3,7-dimethyl-9-((R*)-1-(2-oxo-1-(2,2,2-trifluoroethyl)-1,2-dihydropyridin-4-yl)ethyl)-1,2,3,4,8,9-hexahydropyrido[4′,3′:3,4]pyrazolo[1,5-a]pyrazin-10(7H)-one] had an EC50 in data set [1] of 0.06 µM. The molecule further gave a CC50 at 3 days in data set [2] greater than 50 µM. Also, in data set [3], the half-life at 1 μM was greater than 180 min.

`CC(c1cnn(C)c(=O)c1)N1C[C@@H](C)n2nc3c(c2C1=O)CN(C(=O)c1ccc(Cl)c(C(F)(F)F)c1)[C@H](C)C3` (single isomer, unassigned) [Compound 52A, (3R,7R)-2-(4-chloro-3-(trifluoromethyl)benzoyl)-3,7-dimethyl-9-((R*)-1-(1-methyl-6-oxo-1,6-dihydropyridazin-4-yl)ethyl)-1,2,3,4,8,9-hexahydropyrido [4′,3′:3,4]pyrazolo[1,5-a]pyrazin-10(7H)-one]: the EC50 in data set [1] amounted to 0.12 µM. The molecule further yielded a CC50 at 3 days in data set [2] greater than 50 µM. Also, the “HLM Metabolism t1/2” value in data set [3] is 88.8 min.

With `CC(c1cnn(C(C)C)c(=O)c1)N1C[C@@H](C)n2nc3c(c2C1=O)CN(C(=O)c1ccc(Cl)c(C(F)(F)F)c1)[C@H](C)C3` (single isomer, unassigned) [Compound 53A, (3R,7R)-2-(4-chloro-3-(trifluoromethyl)benzoyl)-9-((R*)-1-(1-isopropyl-6-oxo-1,6-dihydropyridazin-4-yl)ethyl)-3,7-dimethyl-1,2,3,4,8,9-hexahydropyrido[4′,3′:3,4]pyrazolo[1,5-a]pyrazin-10(7H)-one], a half-maximal response in data set [1] (EC50) required 0.24 µM. For the same molecule, the CC50 at 3 days in data set [2] is greater than 50 µM. Moreover, the half-life at 1 μM in data set [3] came out at 111 min.

For the molecule `CC(c1cnn(C2CC2)c(=O)c1)N1C[C@@H](C)n2nc3c(c2C1=O)CN(C(=O)c1ccc(Cl)c(C(F)(F)F)c1)[C@H](C)C3` (single isomer, unassigned) [Compound 54A, (3R,7R)-2-(4-chloro-3-(trifluoromethyl)benzoyl)-9-((R*)-1-(1-cyclopropyl-6-oxo-1,6-dihydropyridazin-4-yl)ethyl)-3,7-dimethyl-1,2,3,4,8,9-hexahydropyrido[4′,3′: 3,4]pyrazolo[1,5-a]pyrazin-10(7H)-one], in data set [1], the EC50 worked out at 0.16 µM. The CC50 at 3 days in data set [2] was greater than 50 µM. Besides, the half-life at 1 μM in data set [3] worked out at 77.2 min.

`CC(c1ccc(=O)n(C)n1)N1C[C@@H](C)n2nc3c(c2C1=O)CN(C(=O)c1ccc(Cl)c(Cl)c1)[C@H](C)C3` (single isomer, unassigned) [Compound 55A, (3R,7R)-2-(3,4-dichlorobenzoyl)-3,7-dimethyl-9-((R*)-1-(1-methyl-6-oxo-1,6-dihydropyridazin-3-yl)ethyl)-1,2,3,4,8,9-hexahydropyrido[4′,3′:3,4]pyrazolo[1,5-a]pyrazin-10(7H)-one] yielded an EC50 in data set [1] (setting [4]) of 0.051 µM. In data set [2], this molecule had a CC50 at 3 days greater than 50 µM. Also, in data set [3], the half-life at 1 μM is greater than 180 min.

In turn, `CC(c1cn(C2CC2)c(=O)cn1)N1C[C@@H](C)n2nc3c(c2C1=O)CN(C(=O)c1ccc(Cl)c(Cl)c1)[C@H](C)C3` (single isomer, unassigned) [Compound 56A, (3R,7R)-9-((R*)-1-(4-cyclopropyl-5-oxo-4,5-dihydropyrazin-2-yl)ethyl)-2-(3,4-dichlorobenzoyl)-3,7-dimethyl-1,2,3,4,8,9-hexahydropyrido[4′,3′:3,4]pyrazolo[1,5-a]pyrazin-10(7H)-one] returned an EC50 in data set [1] of 0.29 µM. Moreover, the CC50 at 3 days in data set [2] was greater than 50 µM. In addition, in data set [3], the half-life at 1 μM is greater than 180 min.

`CC(c1ccc(C(C)(C)O)nc1)N1C[C@@H](C)n2nc3c(c2C1=O)CN(C(=O)c1cc(Cl)c(Cl)cn1)[C@H](C)C3` (single isomer, unassigned) [Compound 57A, (3R,7R)-2-(4,5-dichloropicolinoyl)-9-((R*)-1-(6-(2-hydroxypropan-2-yl)pyridin-3-yl)ethyl)-3,7-dimethyl-1,2,3,4,8,9-hexahydropyrido[4′,3′:3,4]pyrazolo[1,5-a]pyrazin-10(7H)-one] showed an EC50 in data set [1] greater than 2.5 µM. Besides, the CC50 at 3 days in data set [2] is greater than 50 µM. For the same molecule, the half-life at 1 μM in data set [3] was greater than 180 min.

`CC(c1ccc(C(C)(C)O)nc1)N1C[C@@H](C)n2nc3c(c2C1=O)CN(C(=O)c1cc(C(F)(F)F)c(Cl)cn1)[C@H](C)C3` (single isomer, unassigned) [Compound 58A, (3R,7R)-2-(5-chloro-4-(trifluoromethyl)picolinoyl)-9-((R*)-1-(6-(2-hydroxypropan-2-yl)pyridin-3-yl)ethyl)-3,7-dimethyl-1,2,3,4,8,9-hexahydropyrido[4′,3′:3,4]pyrazolo[1,5-a]pyrazin-10(7H)-one] displayed an EC50 in data set [1] greater than 2.5 µM. This molecule also gave a 50% cytotoxic concentration (CC50) at 3 days in data set [2] greater than 50 µM. Moreover, the half-life at 1 μM in data set [3] is greater than 180 min.

`CC(c1ccc(C(C)(C)O)nc1)N1C[C@@H](C)n2nc3c(c2C1=O)CN(C(=O)c1ccc(Cl)c(F)c1)[C@H](C)C3` (single isomer, unassigned) [Compound 59A, (3R,7R)-2-(4-chloro-3-fluorobenzoyl)-9-((R*)-1-(6-(2-hydroxypropan-2-yl)pyridin-3-yl)ethyl)-3,7-dimethyl-1,2,3,4,8,9-hexahydropyrido[4′,3′:3,4]pyrazolo[1,5-a]pyrazin-10(7H)-one]: it took 0.51 µM to reach a half-maximal effect in data set [1] (EC50). In addition, the CC50 at 3 days in data set [2] is greater than 50 µM. In addition, the half-life at 1 μM in data set [3] was greater than 180 min.

The molecule `CC(c1ccc(C(C)(C)O)nc1)N1C[C@@H](C)n2nc3c(c2C1=O)CN(C(=O)c1cc(F)c(Cl)c(F)c1)[C@H](C)C3` (single isomer, unassigned) [Compound 60A, (3R,7R)-2-(4-chloro-3,5-difluorobenzoyl)-9-((R*)-1-(6-(2-hydroxypropan-2-yl)pyridin-3-yl)ethyl)-3,7-dimethyl-1,2,3,4,8,9-hexahydropyrido[4′,3′:3,4]pyrazolo[1,5-a]pyrazin-10(7H)-one] returned an EC50 in data set [1] of 0.3 µM. This molecule showed a CC50 at 3 days in data set [2] greater than 50 µM. Also, the half-life at 1 μM in data set [3] is greater than 180 min.
